From US10561633B2, “Hydroxyflavanones as appetite stimulants” (Symrise AG, priority 2014, dated 2020)
Marks after values point to notes of the source that are not given here.

Experiments:
[1] = tested on: Human neuroblastoma cells (SH-SY5Y); assay: Serotonin release from SH-SY5Y cells (Serotonin-ELISA, normalised to DNA content); assay type: cell-based; conditions: 5 min stimulation, relative to control (0.1% EtOH)
Protocol: Human neuroblastoma cells (SH-SY5Y, ATCC number CRL-2266) are used as the cell model for the release of the neurotransmitter serotonin. Cultivation takes place at 37° C. and 5% CO2 content with a mixture consisting of equal parts of Eagle's minimal essential medium (MEM) and F12 medium (in each case with 10% FBS and 1 penicillin/streptomycin). For measurement of the serotonin release, the cells are harvested with trypsin and, after a vitality test by trypan blue staining, sown in 35 mm cell culture dishes in a defined cell number.
After stimulation of 1.25*10^6 human neuroblastoma cells (SH-SY5Y) for 5 minutes with 300 μl of Krebs-Ringer-HEPES buffer, 0.1% ascorbic acid, pH 6.2, with or without addition of the homoeriodictyol, wherein concentrations of 0.001 μM, 0.01 μM, 0.1 μM, 1 μM and 10 μM in the Krebs-Ringer-HEPES buffer are established when the homoeriodictyol is added, the serotonin content is determined by means of an enzyme-based detection method (Serotonin-ELISA sensitive, DLD Diagnostica, Hamburg, Germany). The cells are lyzed with a buffer containing sodium lauroyl sarcosinate and the DNA content is determined by means of a NanoQuant plate (Tecan, Ménnendorf, Switzerland) for normalization of the serotonin release.
The results are shown in % relative to the control (buffer with 0.1% ethanol). n=3, tR=2. Significant differences in the treatments relative to the control were tested with a single-factor ANOVA with a subsequent Holm-Sidak post hoc test against the control and marked according to the following scheme: * p≤0.05; ** p≤0.01; *** p≤0.001. Concentration-dependent differences were tested with a single-factor ANOVA with a subsequent Holm-Sidak post hoc test and identified by different letters (a, b), wherein no common letter marks a significant difference.

[2] = tested on: serotonin plasma concentration; assay: Change in serotonin plasma concentration of healthy subjects after oral homoeriodictyol (crossover human intervention); assay type: in vivo; conditions: 30 mg oral in 125 ml of water, on average 37 minutes after administration, n=10, water control −6.81 ± 10.6, p<0.05
Protocol: In order to determine the serotonin plasma concentration, whole blood is taken from healthy subjects in each case on a test day before and on average 37 minutes after administration of the test solution (1st test day: 125 ml of water; 2nd test day: 30 mg of homoeriodictyol dissolved in 125 ml of water).
The plasma is obtained from the whole blood by refrigerated centrifugation for 15 minutes at 1800×g, and the serotonin concentration in the plasma is determined by an enzyme-based detection method (Serotonin ELISA, DLD Diagnostika, Germany).
(§1) The change in the serotonin plasma concentration before and after administration of 125 ml of water or 30 mg of homoeriodictyol dissolved in 125 ml of water is shown in Table 2. There is a significant difference between the two treatments (p<0.05; n=10), which was determined by a dependent, two-sided Student's T-test and is marked *.

[3] = tested on: serotonin plasma concentration; assay: Absolute plasma serotonin concentration after oral administration of 30 mg of homoeriodictyol; assay type: in vivo, human; conditions: after oral administration of 30 mg in 125 ml of water, on average 35 minutes, healthy subjects, n=16; before administration 306 ± 152; p<0.05
Protocol: In order to determine the serotonin plasma concentration, whole blood is taken from healthy subjects on a test day before and on average 35 minutes after administration of 30 mg of homoeriodictyol dissolved in 125 ml of water. The plasma is obtained from the whole blood by refrigerated centrifugation for 15 minutes at 1800×g, and the serotonin concentration in the plasma is determined by an enzyme-based detection method (Serotonin-ELISA, DLD Diagnostika, Germany).
as §1, with “of” for “of 125 ml of water or”, “3.” for “2.”, “(p<0.05, n=16),” for “(p<0.05; n=10),”

[4] = tested on: 3T3-L1 adipocytes; assay: Fatty acid uptake in 3T3-L1 adipocytes (QBT Fatty Acid Uptake kit); assay type: cell-based; conditions: 30 min preincubation, AUC of fluorescence over one hour vs EtOH control
Protocol: 3T3-L1 preadipocytes (ATCC CL-173) are used as the cell model for the uptake of free fatty acid into peripheral cells, here adipocytes. Cultivation is carried out at 37° C. and 5% CO2 content in DMEM culture medium to which 10% FBS 4% L-glutamine and 1% penicillin/streptomycin have been added. In order to measure the fatty acid uptake, the 3T3-L1 cells are differentiated in 175 cm^2 cell culture bottles from fully matured adipocytes. To that end, two days after reaching confluence, the cells are stimulated to differentiate for 48 hours by the addition of 10 μg/ml insulin, 1 μM dexamethasone and 0.5 mM isobutyl methyl xanthine from the culture medium. After the cells have been treated for a further 48 hours with 10 μg/ml insulin in the cell culture medium, normal culture medium is again used until the adipocytes are fully mature. The cells are usually used for the test seven to nine days after the onset of differentiation. To that end, the cells are harvested with trypsin and, after a positive vitality test with trypan blue, scattered in a 96-well plate at a rate of 65,000 cells per well. Measurement of the fatty acid uptake is carried out after a 60-minute synchronization of the cells by removal of the fetal bovine serum and a 30-minute preincubation with Hank's balanced salt solution, to which 20 mM HEPES (HBSS/HEPES), with or without the addition of from 0.01 to 10 μM of homoeriodictyol, by means of a fluorescence-labeled fatty acid analog (QBT Fatty Acid Uptake kit, Molecular Devices, Germany), have been added. The change in the area under the curve formed by the increase in the fluorescence signal over the course of one hour is shown in % in comparison with the control. The change in the fatty acid uptake in 3T3-L1 adipocytes after preincubation for 30 minutes with HESS/HEPES buffer with 0.1% ethanol (control) or 0.01-10 μM homoeriodictyol dissolved in HBSS/HEPES buffer is shown in Table 4. Significant differences (p<0.001) relative to the control were tested with a single-factor ANOVA against the control with a subsequent Dunn's post hoc test and are marked ***. Mean values from 3-4 independent experiments with in each case 3 repetitions are shown.

COc1cc(C2CC(=O)c3c(O)cc(O)cc3O2)ccc1O (centres unmarked) [Homoeriodictyol, homoeriodictyol]
Serotonin release T/C ([1]; 0.001 μM): 62.2%
Serotonin release T/C ([1]; 0.01 μM): 42.9%
Serotonin release T/C ([1]; 0.1 μM): 42.6%
Serotonin release T/C ([1]; 1 μM): 43.5%
Serotonin release T/C ([1]; 10 μM): 71.9%
Change in the serotonin concentration in the plasma after administration of the test solution [2]: −19.1 ± 10.6
Serotonin concentration in the plasma [3]: 192 ± 122 nmol
Change in fatty acid uptake ([4]; 0.01 μM): 4.34%
Change in fatty acid uptake ([4]; 0.1 μM, p<0.001): 8.78*** %
Change in fatty acid uptake ([4]; 1 μM): 4.10%
Change in fatty acid uptake ([4]; 10 μM): −0.47%
